{"source": "paper PMC5392334", "about": "“Discovery and characterization of a novel irreversible EGFR mutants selective and potent kinase inhibitor CHMFL-EGFR-26 with a distinct binding mode” (Oncotarget, 2017)", "assay_in_all_cases": "KinomeScan", "type_in_all_cases": "binding", "conditions_in_all_cases": "read-out: % control", "key": {"[1]": {"target": "T1, RSK4(Kin.Dom.2-C-terminal) (Homo sapiens, UniProt Q9UK32)", "T1 construct": "RSK4(Kin.Dom.2-C-terminal); purchased DiscoveRx KINOMEscan", "T1 sequence (Q9UK32 401-745 limits assumed)": "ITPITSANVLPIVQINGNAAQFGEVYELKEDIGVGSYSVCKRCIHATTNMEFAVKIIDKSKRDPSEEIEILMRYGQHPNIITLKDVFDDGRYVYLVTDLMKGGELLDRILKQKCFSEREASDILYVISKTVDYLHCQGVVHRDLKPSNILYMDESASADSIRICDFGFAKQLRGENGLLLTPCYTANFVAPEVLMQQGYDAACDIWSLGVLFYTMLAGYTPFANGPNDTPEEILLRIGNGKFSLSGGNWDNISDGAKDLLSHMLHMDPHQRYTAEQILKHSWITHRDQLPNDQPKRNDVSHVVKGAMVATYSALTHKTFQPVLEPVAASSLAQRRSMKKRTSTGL"}, "[2]": {"target": "T2, EGFR(L747-S752del, P753S) (Homo sapiens, UniProt P00533, DEL747-752/P753S)", "T2 construct": "purchased DiscoveRx KINOMEscan", "T2 sequence (P00533 with tags, fused parts or gaps DEL747-752/P753S limits assumed)": "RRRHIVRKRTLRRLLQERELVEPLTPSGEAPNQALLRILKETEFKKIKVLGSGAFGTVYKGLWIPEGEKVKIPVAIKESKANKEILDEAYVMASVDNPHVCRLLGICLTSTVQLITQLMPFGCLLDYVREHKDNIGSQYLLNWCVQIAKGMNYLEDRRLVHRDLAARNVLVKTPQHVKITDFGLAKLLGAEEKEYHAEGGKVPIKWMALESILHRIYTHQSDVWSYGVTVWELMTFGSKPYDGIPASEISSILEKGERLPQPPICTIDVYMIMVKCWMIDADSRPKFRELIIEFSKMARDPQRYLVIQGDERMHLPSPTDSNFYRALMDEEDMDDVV"}, "TYRO3": {"target": "T3, TYRO3 (Homo sapiens, UniProt Q06418)", "T3 construct": "purchased DiscoveRx KINOMEscan", "T3 sequence (Q06418 41-890)": "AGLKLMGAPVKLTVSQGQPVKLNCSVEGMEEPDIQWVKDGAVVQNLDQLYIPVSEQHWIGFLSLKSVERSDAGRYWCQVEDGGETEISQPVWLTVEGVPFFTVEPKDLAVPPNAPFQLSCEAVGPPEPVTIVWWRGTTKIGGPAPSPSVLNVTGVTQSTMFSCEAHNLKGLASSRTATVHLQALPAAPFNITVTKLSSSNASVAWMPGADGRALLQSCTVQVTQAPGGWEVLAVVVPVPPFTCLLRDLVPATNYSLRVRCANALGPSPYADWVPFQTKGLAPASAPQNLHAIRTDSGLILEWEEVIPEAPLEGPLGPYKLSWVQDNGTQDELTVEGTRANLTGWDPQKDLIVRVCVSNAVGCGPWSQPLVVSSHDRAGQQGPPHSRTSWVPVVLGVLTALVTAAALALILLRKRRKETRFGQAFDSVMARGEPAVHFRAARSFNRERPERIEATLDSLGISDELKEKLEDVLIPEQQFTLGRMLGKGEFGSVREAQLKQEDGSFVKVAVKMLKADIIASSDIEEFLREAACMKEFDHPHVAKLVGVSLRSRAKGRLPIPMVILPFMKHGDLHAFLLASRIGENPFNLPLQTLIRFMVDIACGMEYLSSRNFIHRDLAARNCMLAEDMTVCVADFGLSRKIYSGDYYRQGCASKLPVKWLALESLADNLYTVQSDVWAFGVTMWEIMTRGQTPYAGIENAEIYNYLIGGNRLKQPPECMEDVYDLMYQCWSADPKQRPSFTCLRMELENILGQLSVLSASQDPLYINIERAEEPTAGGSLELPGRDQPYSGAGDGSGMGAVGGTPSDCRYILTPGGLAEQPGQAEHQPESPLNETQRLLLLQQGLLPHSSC"}, "NIK": {"target": "T4, NIK (Homo sapiens, UniProt Q99558)", "T4 construct": "purchased DiscoveRx KINOMEscan"}, "PIM2": {"target": "T5, PIM2 (Homo sapiens, UniProt Q9P1W9)", "T5 construct": "purchased DiscoveRx KINOMEscan"}, "CAMKK2": {"target": "T6, CAMKK2 (Homo sapiens, UniProt Q96RR4)", "T6 construct": "purchased DiscoveRx KINOMEscan"}, "CSNK1G3": {"target": "T7, CSNK1G3 (Homo sapiens, UniProt Q9Y6M4)", "T7 construct": "purchased DiscoveRx KINOMEscan"}, "LRRK2": {"target": "T8, LRRK2 (Homo sapiens, UniProt Q5S007)", "T8 construct": "purchased DiscoveRx KINOMEscan"}, "RET(V804L)": {"target": "T9, RET(V804L) (Homo sapiens, UniProt P07949, V804L)", "T9 construct": "purchased DiscoveRx KINOMEscan", "T9 sequence (P07949 29-1114 V804L)": "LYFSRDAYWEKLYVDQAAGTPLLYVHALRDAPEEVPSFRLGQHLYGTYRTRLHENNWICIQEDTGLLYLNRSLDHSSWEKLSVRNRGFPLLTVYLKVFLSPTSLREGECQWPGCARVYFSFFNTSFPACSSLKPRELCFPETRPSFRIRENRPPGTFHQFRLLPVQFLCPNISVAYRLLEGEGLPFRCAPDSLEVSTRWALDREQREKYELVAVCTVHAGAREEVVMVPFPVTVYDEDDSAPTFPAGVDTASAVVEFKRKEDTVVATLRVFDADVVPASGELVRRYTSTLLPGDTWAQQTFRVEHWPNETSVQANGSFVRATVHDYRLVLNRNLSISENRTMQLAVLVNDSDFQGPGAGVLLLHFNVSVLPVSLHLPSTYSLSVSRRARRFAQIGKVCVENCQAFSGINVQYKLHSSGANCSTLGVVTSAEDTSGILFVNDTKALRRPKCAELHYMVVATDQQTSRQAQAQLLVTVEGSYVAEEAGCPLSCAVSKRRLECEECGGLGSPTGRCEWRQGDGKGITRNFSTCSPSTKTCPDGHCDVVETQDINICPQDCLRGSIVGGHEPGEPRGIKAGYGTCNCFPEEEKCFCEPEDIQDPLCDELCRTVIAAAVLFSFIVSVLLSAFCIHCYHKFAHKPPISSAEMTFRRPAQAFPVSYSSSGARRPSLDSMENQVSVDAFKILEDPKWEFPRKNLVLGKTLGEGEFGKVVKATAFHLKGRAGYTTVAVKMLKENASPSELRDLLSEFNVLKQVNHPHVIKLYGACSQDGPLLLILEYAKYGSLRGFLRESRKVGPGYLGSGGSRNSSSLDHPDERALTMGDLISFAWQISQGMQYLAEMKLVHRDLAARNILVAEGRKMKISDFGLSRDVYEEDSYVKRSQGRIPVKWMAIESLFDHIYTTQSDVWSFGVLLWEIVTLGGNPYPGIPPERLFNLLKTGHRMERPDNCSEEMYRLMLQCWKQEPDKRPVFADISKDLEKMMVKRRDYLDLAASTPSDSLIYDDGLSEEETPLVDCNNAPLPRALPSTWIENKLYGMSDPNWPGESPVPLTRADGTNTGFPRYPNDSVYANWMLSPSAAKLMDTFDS"}, "KIT": {"target": "T10, KIT (Homo sapiens, UniProt P10721)", "T10 construct": "purchased DiscoveRx KINOMEscan", "T10 sequence (P10721 26-976)": "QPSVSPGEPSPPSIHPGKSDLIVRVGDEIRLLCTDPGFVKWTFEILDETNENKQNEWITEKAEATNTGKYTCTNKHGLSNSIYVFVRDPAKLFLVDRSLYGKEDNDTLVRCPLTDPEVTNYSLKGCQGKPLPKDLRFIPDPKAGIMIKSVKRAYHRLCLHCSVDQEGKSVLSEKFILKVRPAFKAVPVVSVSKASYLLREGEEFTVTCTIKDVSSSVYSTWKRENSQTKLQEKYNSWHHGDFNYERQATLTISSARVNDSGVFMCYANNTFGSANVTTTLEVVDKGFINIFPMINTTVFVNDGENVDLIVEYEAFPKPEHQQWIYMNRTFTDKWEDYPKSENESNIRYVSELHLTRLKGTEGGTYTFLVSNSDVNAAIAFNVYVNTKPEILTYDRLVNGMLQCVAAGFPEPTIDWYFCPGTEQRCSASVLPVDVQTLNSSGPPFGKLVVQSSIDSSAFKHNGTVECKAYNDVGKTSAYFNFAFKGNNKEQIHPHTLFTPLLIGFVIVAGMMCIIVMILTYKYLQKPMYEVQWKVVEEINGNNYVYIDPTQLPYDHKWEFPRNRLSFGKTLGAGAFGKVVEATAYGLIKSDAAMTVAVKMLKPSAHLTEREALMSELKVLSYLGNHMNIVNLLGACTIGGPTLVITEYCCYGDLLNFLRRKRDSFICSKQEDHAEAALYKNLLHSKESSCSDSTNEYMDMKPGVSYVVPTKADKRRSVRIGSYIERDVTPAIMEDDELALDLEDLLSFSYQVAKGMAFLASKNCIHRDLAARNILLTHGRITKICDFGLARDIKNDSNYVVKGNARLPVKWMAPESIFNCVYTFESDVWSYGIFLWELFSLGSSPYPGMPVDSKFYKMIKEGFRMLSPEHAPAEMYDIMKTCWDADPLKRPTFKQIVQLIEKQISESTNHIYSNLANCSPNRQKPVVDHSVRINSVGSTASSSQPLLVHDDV"}, "DAPK1": {"target": "T11, DAPK1 (Homo sapiens, UniProt P53355)", "T11 construct": "purchased DiscoveRx KINOMEscan"}, "EPHB1": {"target": "T12, EPHB1 (Homo sapiens, UniProt P54762)", "T12 construct": "purchased DiscoveRx KINOMEscan", "T12 sequence (P54762 18-984)": "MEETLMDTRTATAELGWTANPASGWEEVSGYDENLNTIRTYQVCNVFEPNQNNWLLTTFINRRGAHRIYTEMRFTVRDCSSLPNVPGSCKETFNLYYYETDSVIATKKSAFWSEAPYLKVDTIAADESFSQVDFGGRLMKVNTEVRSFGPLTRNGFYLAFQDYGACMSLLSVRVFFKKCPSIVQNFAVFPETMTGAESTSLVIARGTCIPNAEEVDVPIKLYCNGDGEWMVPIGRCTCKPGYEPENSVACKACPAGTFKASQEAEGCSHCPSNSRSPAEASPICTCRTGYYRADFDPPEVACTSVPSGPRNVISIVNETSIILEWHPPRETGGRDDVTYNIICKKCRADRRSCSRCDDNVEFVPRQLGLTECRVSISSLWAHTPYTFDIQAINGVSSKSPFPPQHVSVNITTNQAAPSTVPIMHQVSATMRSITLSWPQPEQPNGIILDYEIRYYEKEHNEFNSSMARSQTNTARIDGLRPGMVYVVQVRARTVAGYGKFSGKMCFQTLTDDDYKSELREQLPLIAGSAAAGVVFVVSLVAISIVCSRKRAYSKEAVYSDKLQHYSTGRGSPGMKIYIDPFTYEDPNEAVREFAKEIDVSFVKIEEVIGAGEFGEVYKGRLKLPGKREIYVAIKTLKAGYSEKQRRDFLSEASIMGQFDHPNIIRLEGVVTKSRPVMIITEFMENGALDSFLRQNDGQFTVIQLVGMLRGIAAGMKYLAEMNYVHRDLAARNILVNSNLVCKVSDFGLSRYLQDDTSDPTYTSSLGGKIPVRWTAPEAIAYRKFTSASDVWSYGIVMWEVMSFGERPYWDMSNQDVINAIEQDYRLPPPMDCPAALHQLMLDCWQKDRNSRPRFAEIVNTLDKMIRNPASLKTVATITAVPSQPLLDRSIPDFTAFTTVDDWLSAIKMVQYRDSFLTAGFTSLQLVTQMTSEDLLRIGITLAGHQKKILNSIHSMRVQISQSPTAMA"}}, "data": [{"smiles": "C=CC(=O)N1CCC[C@@H](n2nc(-c3ccc(OCc4cccc(C)n4)c(Cl)c3)c3c(N)ncnc32)C1", "note": "[CHMFL-EGFR-26]", "values": [{"measurement": "remaining binding at 1 µM", "setting": "[1]", "result": 72, "unit": "%"}, {"measurement": "remaining binding at 1 µM", "setting": "[2]", "result": 20, "unit": "%"}, {"measurement": "remaining binding at 1 µM", "setting": "TYRO3", "result": 53, "unit": "%"}, {"measurement": "remaining binding at 1 µM", "setting": "NIK", "result": 100, "unit": "%"}, {"measurement": "remaining binding at 1 µM", "setting": "PIM2", "result": 100, "unit": "%"}, {"measurement": "remaining binding at 1 µM", "setting": "CAMKK2", "result": 75, "unit": "%"}, {"measurement": "remaining binding at 1 µM", "setting": "CSNK1G3", "result": 98, "unit": "%"}, {"measurement": "remaining binding at 1 µM", "setting": "LRRK2", "result": 100, "unit": "%"}, {"measurement": "remaining binding at 1 µM", "setting": "RET(V804L)", "result": 100, "unit": "%"}, {"measurement": "remaining binding at 1 µM", "setting": "KIT", "result": 100, "unit": "%"}, {"measurement": "remaining binding at 1 µM", "setting": "DAPK1", "result": 77, "unit": "%"}, {"measurement": "remaining binding at 1 µM", "setting": "EPHB1", "result": 96, "unit": "%"}]}]}
